Results on one compound are retold here after US20110009482A1, “METHODS OF TREATING COPD” (Schering Corporation, priority 2007, published 2011).

SMILES strings stand for the structures.

The series can be described thus: Pharmacokinetics after oral administration to a human. The note with it: in vivo.
[1] abbreviates: single-dose oral administration of 30 mg to a human.

By Tmax is commonly meant the time from dosing to the highest level. As a reminder, the AUC is concentration integrated over time. A lower AUC goes with low exposure. Broadly, the Cmax is the highest concentration seen after dosing. Regarding `CC[C@@H](Nc1c(Nc2cccc(C(=O)N(C)C)c2O)c(=O)c1=O)c1ccc(C)o1` [formula (1.0A)], the Tmax (oral administration to a human, read-out: median Tmax) was 0.5 to 2 h. Under setting [1], the AUC was in the range of 484 to 489 ng·h/mL and the Cmax fell in the range of 122 to 147 ng/mL.
